Assay results taken from US8492515B2 (priority 2008, dated 2013).
Entries after “also recorded” stand apart in the source; their conditions may differ. Bridge positions count the residues as written; N and C are the ends. Square brackets hold non-standard residues; d marks the D form. Ends that are not written are not given here. Peptide text beside a SMILES is read from it. I, II: the chains in the order shown. Ac6c = NC1(C(=O)O)CCCCC1; Dab = NCC[C@H](N)C(=O)O; Dap = NC[C@H](N)C(=O)O

Columns and labels:
[1] = tested on: Enterobacteriaceae strains
Source text: (§1) To investigate the activity of the A3-APO metabolites, Chex1-Arg20 single chain unit and an Arg7-Arg20 common cleavage fragment were synthesized and studied for their ability to kill Enterobacteriaceae strains in undiluted Muller-Hinton broth, a true measure of potential clinical viability (Otvos et al., 2005. J. Med. Chem. 48: 5349-5359). The peptides of the invention were made on a CEM Liberty automated synthesizer with standard Fmoc-chemistry. The peptides were detached from the resin with the carboxyl terminus of the C-terminal Arg residue being in the form of an amino amide, —C(O)—NH2 (“Chex1-Arg20-NH2” and “Arg7-Arg20-NH2”), while still in the microwave chamber, and were purified by RP-HPLC. […] The biological studies carried out on chemically synthesized peptides in this example and succeeding examples were carried out on the C-terminal modified versions of the peptides wherein the C-terminal carboxylic acid function was in the form of an amide, —C(O)—NH2. Antibacterial growth inhibition assays were performed using sterile 96-well polypropylene plates (Nunc F96 microtiter plates) in a final volume of 100 μL as described previously (Cudic et al., 2002. Peptides 23: 271-283). The cell concentrations were estimated by measuring the ultraviolet absorbance at 600 nm and applying the formula cfu/mL=A600(3.8×10^8), where cfu is the number of colony-forming units. Briefly, 50 μL of a suspension of midlogarithmic phase bacterial cultures diluted to 5×10^5 cfu/mL in Muller-Hinton broth (MHB) was added to 50 μL of serially diluted peptides also dissolved in MHB. The final peptide concentration was 128 μg/mL. Cultures were then incubated at 37° C., 5% CO2 for 16-20 h without shaking, and growth inhibition was measured by recording the absorbance at 600 nm using a microplate reader. […] The minimal inhibitory concentration indicates the lowest peptide dose where no visible bacterial growth is detected after 16 hours incubation in full strength Muller-Hinton broth at 37° C. The peptide Chex-pyrr-Dap dimer was also included in the study. […] (Cudic et al., 2002. Peptides 23: 271-283).

E. coli HK179 = settings: HK179, 16 h
Source text: as §1

S. typhimurium G10215 = settings: G10215, 16 h
Source text: as §1

E. coli SEQ102 = settings: SEQ102, 16 h
Source text: as §1

K. pneumoniae HK123 = settings: HK123, 16 h
Source text: as §1

[2] = tested on: extended-spectrum β-lactamase producing E. coli strain (designation 5770); assay: Systemic infection model, cisplatin-pretreated CD-1 mice, blood bacterial counts; assay type: in vivo; settings: 40 mg/kg ip
Experimental: As peptide drugs, such as antimicrobial peptides, are predominantly cleared through the kidneys (Klootwijk et al., 1997. J. Clin. Endocrinol. Metab. 82: 3068-3073) and the kidney functions of mice are 20-fold faster than those of humans, CD-1 female mice of 15-20 g were pretreated with 18 mg/kg cisplatin for 3 days to impair kidney clearance similar to the levels observed in humans (Mathe et al., 2006. Lab. Anim. 40: 296-300) before they were challenged intraperitoneally (ip) with 10^8 CFU per g mouse of an extended-spectrum β-lactamase producing E. coli strain (designation 5770). Four, 8 and 12 hours after challenge 10 or 20 mg/kg peptide Chex1-Arg20 or 40 mg/kg imipenem (as a positive control) were administered ip to 10 mice in each group. Imipenem is a broad spectrum β-lactam antibiotic. Prior to drug administration at all three timepoints, blood was taken from the tail vein of 3-5 mice for determining blood bacterial counts. […] Antimicrobials were administered ip 4 hours after challenge 3 times in 4 hour intervals. Blood was taken immediately before antimicrobial treatments. Numbers in parentheses indicate the number of mice with <10^3 CFU/mL. Bacterial counts were determined 10 times from different dilution of blood from 5 mice in each group in each timepoints.

Escherichia coli 5770 [3] = assay: Mouse survival after last dose, systemic infection model without cisplatin pretreatment; assay type: in vivo; settings: 40 mg/kg
Experimental: The survival rate and the dynamics of survival of mice after the last dose of an antibacterial peptide treatment (12 hours post-infection) were measured in a mouse model of Escherichia coli 5770 systemic infection. In this particular study, the animals were not pretreated with cisplatin. Ten animals were used in each group. […] In the control (infected, non-treated) and the imipenem treated rows, the first numbers reflect the number of surviving animals on the day of assay measuring the efficacy of the Chex1-Arg20 and the second numbers are the surviving control animals on the day of the A3-APO efficacy assay.

[4] = approximately 100 μL retrieved blood (female CD-1 mice retroorbitally bled), ex vivo; settings: 37° C., up to 30 min
[5] = blood taken from the eye of CD-1 mice injected intravenously with A3-APO; settings: up to 240 minutes
Escherichia coli 5770 [6] = assay: Blood bacterial counts before and after intraperitoneal dosing of infected CD-1 mice (FIGS. 4A, 4B); assay type: in vivo; settings: compared with imipenem in the respective assay
Source text: FIGS. 4A and 4B illustrate blood bacterial counts before and after intraperitoneal drug dosing to Escherichia coli 5770 infected CD-1 mice. In FIG. 4A the symbols represent bacterial counts observed for infected and non-treated mice, A3-APO treated mice and imipenem treated mice. In FIG. 4B the symbols represent bacterial counts observed for infected and non-treated mice, Chex1-Arg20-NH2 treated mice and imipenem treated mice. Identical shapes if FIGS. 4A and 4B represent identical timepoints, respectively.
Both A3-APO and Chex1-Arg20 are active in lethal systemic infections. Efficacy is shown in both the increase of survival time and the reduction of blood bacterial counts. FIGS. 4A and 4B show blood bacterial counts before and after intraperitoneal drug dosing to Escherichia coli 5770 infected CD-1 mice. In FIG. 4A the symbols represent bacterial counts observed for infected and non-treated mice, A3-APO treated mice and imipenem treated mice. In FIG. 4B the symbols represent bacterial counts observed for infected and non-treated mice, Chex1-Arg20-NH2 treated mice and imipenem treated mice. Identical shapes if FIGS. 4A and 4B represent identical timepoints, respectively.

[7] = ex vivo blood, protocol of 'Stability of Peptide A3-APO in Whole Blood'; settings: CD-1 mice, 37° C., up to 120 min
E. coli D31 = settings: full strength Muller-Hinton broth, 16 hours, 37° C.
Source text: as §1

CC[C@H](C)[C@H](NC(=O)[C@@H]1CCCN1C(=O)[C@H](CCCNC(=N)N)NC(=O)[C@@H]1CCCN1C(=O)[C@@H]1CCCN1C(=O)[C@@H](NC(=O)[C@@H]1CCCN1C(=O)[C@H](CCCNC(=N)N)NC(=O)[C@@H]1CCCN1C(=O)[C@H](CC(C)C)NC(=O)[C@H](Cc1ccc(O)cc1)NC(=O)[C@H](CO)NC(=O)CNC(=O)[C@H](CCCCN)NC(=O)[C@H](CC(=O)O)NC(=O)C1(N)CCCCC1)[C@@H](C)O)C(=O)N[C@@H](Cc1ccc(O)cc1)C(=O)N[C@@H](CC(N)=O)C(=O)N[C@@H](CCCNC(=N)N)C(=O)NC[C@H](NC(=O)[C@H](CCCNC(=N)N)NC(=O)[C@H](CC(N)=O)NC(=O)[C@H](Cc1ccc(O)cc1)NC(=O)[C@@H](NC(=O)[C@@H]1CCCN1C(=O)[C@H](CCCNC(=N)N)NC(=O)[C@@H]1CCCN1C(=O)[C@@H]1CCCN1C(=O)[C@@H](NC(=O)[C@@H]1CCCN1C(=O)[C@H](CCCNC(=N)N)NC(=O)[C@@H]1CCCN1C(=O)[C@H](CC(C)C)NC(=O)[C@H](Cc1ccc(O)cc1)NC(=O)[C@H](CO)NC(=O)CNC(=O)[C@H](CCCCN)NC(=O)[C@H](CC(=O)O)NC(=O)C1(N)CCCCC1)[C@@H](C)O)[C@@H](C)CC)C(=O)N[C@@H](CNC(C)=O)C(N)=O [Chex-pyrr-Dap dimer] (I: H-[Ac6c]DKGSYLPRPTPPRPIYNR[Dap][Dap](Ac)-NH2 / II: H-[Ac6c]DKGSYLPRPTPPRPIYNR; amide I:20-II:C; N-terminus assumed)
activity in full-strength Muller-Hinton broth ([1]; negative control): without significant activity
MIC against E. coli HK179 (E. coli HK179): >64 µg/mL
MIC against S. typhimurium G10215 (S. typhimurium G10215): >64 µg/mL
MIC against E. coli SEQ102 (E. coli SEQ102): >64 µg/mL
MIC against K. pneumoniae HK123 (K. pneumoniae HK123): >64 µg/mL

C[C@@H](O)[C@H]1C(=O)N2C(C(=O)O)=C(SCCN=CN)C[C@H]12 [Imipenem, reference compound]
Bacterial counts in blood after inoculation/challenge ([2]; 4 h (blood taken before first dose)): 3.2 × 10^5 CFU/mL
Bacterial counts in blood after inoculation/challenge ([2]; 8 h): 3.7 × 10^3 CFU/mL
Bacterial counts in blood after inoculation/challenge ([2]; 12 h): < 1.2 × 10^3 CFU/mL
number of surviving mice (10 animals each) (Escherichia coli 5770 [3]; 0 h after last dose, day of the A3-APO assay): 9
number of surviving mice (10 animals each) (Escherichia coli 5770 [3]; 0 h after last dose, day of the Chex1-Arg20 assay): 10
number of surviving mice (10 animals each) (Escherichia coli 5770 [3]; 3 h after last dose, day of the A3-APO assay): 9
number of surviving mice (10 animals each) (Escherichia coli 5770 [3]; 3 h after last dose, day of the Chex1-Arg20 assay): 10
number of surviving mice (10 animals each) (Escherichia coli 5770 [3]; 6 h after last dose, day of the A3-APO assay): 9
number of surviving mice (10 animals each) (Escherichia coli 5770 [3]; 6 h after last dose, day of the Chex1-Arg20 assay): 10
number of surviving mice (10 animals each) (Escherichia coli 5770 [3]; 9 h after last dose, day of the A3-APO assay): 9
number of surviving mice (10 animals each) (Escherichia coli 5770 [3]; 9 h after last dose, day of the Chex1-Arg20 assay): 10
number of surviving mice (10 animals each) (Escherichia coli 5770 [3]; 12 h after last dose, day of the A3-APO assay): 9
number of surviving mice (10 animals each) (Escherichia coli 5770 [3]; 12 h after last dose, day of the Chex1-Arg20 assay): 10

(SEQ ID NO: 2)2-Dab (I: [Ac6c]RPDKPRPYLPRPRPPRPVR[Dab] / II: [Ac6c]RPDKPRPYLPRPRPPRPVR; amide I:21-II:C (inferred))
fragment found [4]: Chex1-Val19; Chex-Arg-Pro-Asp-Lys-Pro-Arg-Pro-Tyr-Leu-Pro-Arg-Pro-Arg-Pro-Pro-Arg-Pro-Val (SEQ ID NO: 4), 30 min; also recorded: Chex1-Dab21; Chex-Arg-Pro-Asp-Lys-Pro-Arg-Pro-Tyr-Leu-Pro-Arg-Pro-Arg-Pro-Pro-Arg-Pro-Val-Arg-Dab (SEQ ID NO: 7), 30 min
fragment found [5]: Chex1-Arg20; Chex-Arg-Pro-Asp-Lys-Pro-Arg-Pro-Tyr-Leu-Pro-Arg-Pro-Arg-Pro-Pro-Arg-Pro-Val-Arg (SEQ ID NO: 2), major, 5 minutes

Chex-Arg-Pro-Asp-Lys-Pro-Arg-Pro-Tyr-Leu-Pro-Arg-Pro-Arg--Pro-Pro-Arg-Pro-Val-Arg-NH2 ([Ac6c]RPDKPRPYLPRPRPPRPVR-NH2) [Chex1-Arg20-NH2]
reduction of blood bacterial counts (Escherichia coli 5770 [6]): reduced the bacterial counts to levels identical to those observed after imipenem treatment

Chex-Arg-Pro-Asp-Lys-Pro-Arg-Pro-Tyr-Leu-Pro-Arg-Pro-Arg-Pro-Pro-Arg-Pro-Val-Arg
cleaved bond [7]: Val19-Arg20

RPYLPRPRPPRPVR-NH2 [Arg7-Arg20, Arg-Pro-Tyr-Leu-Pro-Arg-Pro-Arg-Pro-Pro-Arg-Pro-Val-Arg]
MIC values against the test strain [1]: > 64 µg/mL
MIC against E. coli D31 (E. coli D31): >64 µg/mL
MIC against E. coli HK179 (E. coli HK179): >64 µg/mL
MIC against S. typhimurium G10215 (S. typhimurium G10215): >64 µg/mL
MIC against E. coli SEQ102 (E. coli SEQ102): >64 µg/mL
MIC against K. pneumoniae HK123 (K. pneumoniae HK123): >64 µg/mL
